“Also recorded” adds a separate entry of the source.
What was measured:
mice = assay: Immunization of mice with glycolipid, antibody titers by ELISA; assay type: in vivo, NIH Swiss albino mice
Procedure: FIG. 11 is a graph showing antibody titers of sera from ice immunized with the glycolipid of formula B. Mice (10 mice per group) were immunized as described below, with the glycolipid of formula B in Freund's adjuvant (CFA); PBS; DMSO, or squalene. Antibody titers were determined by an ELISA in sera diluted 1:100, and are represented as an average of three independent assays. Brackets, standard deviation.
(§1) Immunization and Immunostaining—Groups of ten female NIH Swiss albino mice (5-6 weeks old, general purpose) were immunized intraperitoneally with 2 doses of BBGL-II emulsified in complete Freund's adjuvant (first dose) or incomplete Freund's adjuvant (second dose) two weeks apart. The doses contained 10 μg BBGL-II per 0.1 ml and were administered IP in 0.1 ml. Alternatively, mice were immunized three times, 2 weeks apart, with 10 μg of BBGL-II emulsified in 0.1 ml of DMSO, squalene, or PBS. Mice were bled 2 weeks after the second dose and the sera thus obtained was kept at −20° C. until used. Rabbits (females, New Zealand White, 8 weeks old) were immunized with two doses of BBGL-II, 75 μg each, in Fruend's adjuvant, administered i.m. and i.c. in 20×0.05 ml.

rabbits = assay: Immunization of rabbits with glycolipid, antibody titers by ELISA; assay type: in vivo, New Zealand White rabbits
Procedure: FIG. 10 is a graph showing antibody titers of sera from rabbits immunized with the glycolipid of formula B. Antibody titers were measured by an ELISA, as described below, and represent an average of four different rabbit sera, diluted 1:100, each tested in three independent assays. Open bars, IgG titers; gray bars, IgM titers; brackets, standard deviation.
as §1

[1] = ELISA and TLC overlay assays of antibodies raised against the synthetic analog; assay type: in vivo
Procedure: Immunostaining of membrane lipids was performed as previously described (15). Developed chromatogram plates, containing lipid spots, were coated with polyisobutyl-methacrylate solution (0.05% in hexane) and allowed to dry. The plates were then blocked with PBS containing 1% BSA and 0.05% tween 20 for 15 minutes, and then incubated with anti BBGL-II antiserum, diluted 1:100 in PBS-BSA buffer for 1 hour at 22° C. The plates were rinsed 5 times with PBS-BSA buffer and incubated with alkaline phosphatase-conjugated rat anti mouse IgG (KPL, MD) diluted 1:25,000 in PBS-BSA for 1 hour at 22° C. The plates were then washed, and developed using BCIP/NBT (KPL, MD).

[2] = test system: immobilized polymixin B on agarose; assay: Affinity chromatography on Detoxi-Gel Endotoxin Removing Gel; assay type: binding; settings: sonicated B. burgdorferi cells loaded; bound material eluted with 1% deoxycholic acid; TLC and immunolabeling
Procedure: Affinity Chromatography—BBGL-II was also purified by affinity chromatography using Detoxi-Gel Endotoxin Removing Gel (Pierce, Rockford, Ill.). Borrelia cells were washed 5 times with PBS, resuspended in the same buffer, and disrupted by ultrasonic treatment for 30 seconds, in a Branson sonifier operated at 50% duty cycles at 100 W. Membranes were separated from the soluble fraction by centrifugation at 37000 g for 30 minutes, and the supernatant (1 ml containing 1 mg total protein) was loaded on a detoxi-gel (agarose-immobilized-polymixin B) column (0.9×10 cm). The column was washed with 10 bed-volumes of PBS. Elution of the bound material was performed by washing with 10 bed volumes of PBS containing 1% Deoxycholic acid (w/v), according to the manufacturer's instructions. The bound fraction was dialyzed against distilled water, lyophilized, and lipids were extracted as mentioned.
This resin consists of immobilized polymixin B on agarose, and is used for the removal of endotoxins by binding to the lipid A portion of LPS.

[3] = Antibodies induced by BBGL-III (data not shown); assay type: in vivo

**Q.** Which results are given for `CCCCCCCCCCCCCCCC(=O)OC[C@H]1O[C@@H](O[C@H]2CC[C@@]3(C)C(=CC[C@H]4[C@@H]5CC[C@H]([C@H](C)CCCC(C)C)[C@@]5(C)CC[C@@H]43)C2)[C@H](O)[C@@H](O)[C@H]1O` [BBGL-II, cholesteryl 6-O-palmitoyl-β-D-galactopyranoside]?
**A.** relative immunogenicity by formulation (mice; in PBS (likely as micelles) compared with solute in DMSO or squalene): more immunogenic than as a solute in DMSO or squalene; isotype of elicited antibodies (mice; mice): mostly of the IgM isotype; specificity of elicited antibodies (mice; mice): specific to the homologous glycolipid; induction of antibodies (mice; mice injected with various formulations): Specific antibodies were induced; also recorded: elicited antibodies; antibody titers by formulation (mice; with Freund's adjuvant, compared with PBS, DMSO, squalene): Highest titers; isotype of elicited antibodies (rabbits): mostly of the IgM isotype; specificity of elicited antibodies (rabbits): specific to the homologous glycolipid; induction of antibodies (rabbits; Freund's adjuvant): Specific antibodies were induced; also recorded: elicited antibodies

**Q.** With `CC(C)CCCC(C)C1CCC2C3CC=C4CC(OC5OC(COC(=O)CCCCCCCCCCCCCCCN=[N+]=[N-])C(O)C(O)C5O)CCC4(C)C3CCC12C` (stereo not shown) [compound 19] as the compound, how does the “antibodies raised, compared with purified native BBGL-II” value [1] read?
**A.** The value was “to the same extent as with the purified native BBGL-II”.

**Q.** What does the source list for “1,2-diacyl-3-[O-α-D-galactopyranosyl]-sn-glycerol [BBGL-III]”?
**A.** binding to Detoxi-Gel (polymixin B) column [2]: not bound to the column; isotype of induced antibodies ([3]; data not shown): mostly IgM; induction of antibodies ([3]; data not shown, species not stated): induced antibodies; also recorded: elicited antibodies; reactivity of induced antibodies with BBGL-II and BBGL-III ([3]; in vivo): reacted with both glycolipids

Source: US7666846B2, “Cholesterol-containing compounds and their use as immunogens against Borrelia burgdorferi” (The United States of America as represented by the …, priority 2003, dated 2010)
